Data published in patent publication US20170022201A1, “MACROCYLIC PYRIDINE DERIVATIVES” (Janssen Pharmaceutica NV, priority 2014, published 2017).

Experiments:
PIK3C3 lipid kinase = PIK3C3 lipid kinase (Homo sapiens, UniProt Q8NEB9); test: Biochemical Vps34 lipid kinase assay (ADP-Glo); conditions: 20 μM ATP; for remaining activity at 1 µM: 1 h, single dose 1 μM, residual activity compared to control (DMSO), read-out: VPS34_1microM_%ofcntrl; for IC50: serial dilution 10 μM to 0.3 nM, pIC50 = -log IC50 (M)
Procedure: A non-radiometric kinase assay (ADP-Glo™ Assay, Promega, Madison, Wi, USA) was used for measuring the kinase activity of the PIK3C3 lipid kinase. All kinase assays were performed in 96-well half-area microtiter plates in a 25 μl reaction volume. The reaction cocktail was pipetted in 3 steps in the following order: • 10 μl of ATP solution (in assay buffer, see below) • 5 μl of test sample in 5% DMSO 10 μl of enzyme/substrate mixture
All lipid kinase assays contained 50 mM HEPES (4-(2-hydroxyethyl)-1-piperazineethanesulfonic acid)—NaOH, pH 7.5, 1 mM EGTA ((ethylene glycol tetraacetic acid), 100 mM NaCl, 0.03% CHAPS (3-[(3-Cholamidopropyl) dimethylammonio]-1-propanesulfonate), 2 mM DTT (Dithiothreitol), 20 μM ATP (corresponding to the apparent ATP-Km), kinase (7.6 nM) and substrate (50 μM). The assay for PIK3C3 additionally contained 3 mM MnCl2.
The reaction cocktails were incubated at 30° C. for 60 minutes. The reaction was stopped with 25 μl ADP-Glo™ reagent per well. Plates were incubated for 40 minutes at room temperature, followed by addition of 50 μl kinase detection reagent per well and incubation for 60 minutes at room temperature. Signal was determined with a microplate luminescence reader (Victor, Perkin Elmer). The assay was either performed using a single dose of compound (1 μM final concentration in the assay reaction) with resulting data expressed as residual activity compared to control (DMSO), or using a serial (half-log) dilution of compounds starting at 10 μM and down to 0.3 nM (final concentrations in the assay) with data expressed as the pIC50.

EF2K = target: T1, EF2K (Homo sapiens, UniProt O00418); test: Biochemical EF2K lysate-based kinase assay (AlphaLISA p-eEF2 Thr56); conditions: LN-229 cell lysates, 10 mM ATP, pH 6.6; pIC50 = -log IC50 (M); read-out: eEF2K_C_alphalisa pIC50 (converted)
T1 construct: host or cells: LN-229 glioblastoma cell lysate
T1 sequence (O00418 1-725): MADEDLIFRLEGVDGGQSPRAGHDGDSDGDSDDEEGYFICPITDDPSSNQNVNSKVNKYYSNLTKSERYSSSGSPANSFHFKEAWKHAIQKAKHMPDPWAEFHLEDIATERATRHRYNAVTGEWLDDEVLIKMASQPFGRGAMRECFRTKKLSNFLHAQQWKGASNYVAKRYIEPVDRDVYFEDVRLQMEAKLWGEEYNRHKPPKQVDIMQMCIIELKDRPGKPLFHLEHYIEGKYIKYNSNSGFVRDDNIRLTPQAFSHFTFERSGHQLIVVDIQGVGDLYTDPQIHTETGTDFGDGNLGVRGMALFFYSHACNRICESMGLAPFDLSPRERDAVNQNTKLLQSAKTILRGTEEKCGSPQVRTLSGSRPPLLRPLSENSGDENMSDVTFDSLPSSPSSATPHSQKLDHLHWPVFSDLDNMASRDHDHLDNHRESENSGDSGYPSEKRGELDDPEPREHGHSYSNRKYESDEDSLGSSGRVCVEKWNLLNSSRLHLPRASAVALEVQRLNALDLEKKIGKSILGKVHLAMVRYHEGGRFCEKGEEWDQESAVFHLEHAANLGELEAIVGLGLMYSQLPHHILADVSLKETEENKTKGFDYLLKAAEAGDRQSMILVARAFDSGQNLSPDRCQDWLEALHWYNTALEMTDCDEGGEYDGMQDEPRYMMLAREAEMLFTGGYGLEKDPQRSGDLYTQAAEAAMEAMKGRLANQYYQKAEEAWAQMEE
Excerpt: LN-229 cells were purchased from ATCC (CRL-2611); these are glioblastoma cells. Cell lysates from LN229 were used in this kinase assay to provide both the kinase and the substrate (EF2). The AlphaLISA p-eEF2 (Thr56) detection assay was developed using a sandwich assay format with two specific antibodies recognizing different epitopes of the target, including one antibody against the phosphorylation site of interest. One anti-eEF2 antibody was conjugated onto AlphaLISA Acceptor beads, while the second antibody was biotinylated and captured by streptavidin coated Donor beads.
Compound was mixed with LN-229 cell lysates in the presence of a kinase buffer (e.g. HEPES) at a pH of 6.6, containing 10 mM Mg^2+ (e.g. magnesium acetate) and 10 mM adenosine-tri-phosphate (ATP) and incubated at room temperature for 15 minutes. The kinase reaction was stopped with excess ethylenediaminetetraacetic acid disodium salt and the biotinylated-anti phospho eEF2 antibody (3 nM) was added for 1 hour. Then the anti-EF2 acceptor beads (10 μg/ml) as well as the streptavidin coated donor beads (20 μg/ml) were added for 1 hour, and the AlphaLISA signal was measured in an Envision instrument once, left overnight, and measured again for the final read.

eEF2K = target: T2, eEF2K (Homo sapiens, UniProt O00418); test: EF2K cell-based assay (P-EF2 AlphaLISA, 2-deoxyglucose stimulated MCF10A cells); conditions: 2.5 mM 2-deoxyglucose 4 h, phosphorylation of EF2 at Thr 56, pIC50 = -log IC50 (M), read-out: eEF2K_C_PThr56 pIC50 (converted)
T2 construct: in the immortalized epithelial breast cell lines, MCF10A; host or cells: MCF10A immortalized breast epithelial cells
T2 sequence (O00418 1-725): T1 sequence (O00418 1-725)
Procedure: In this assay, 2.5 mM 2-deoxyglucose was used to deplete intracellular ATP and activate 5′ adenosine monophosphate-activated protein kinase (AMPK) in the immortalized epithelial breast cell lines, MCF10A. MCF 10A cells were purchased from ATCC (CRL-10317).
MCF10A cells are seeded at a density of 1.25×10^5 Cells/ml at 100 μl/well in a 96-well plate and incubated for 24 hours (37° C., 5% CO2). Compound is added for 1 hour, and cell are stimulated with 2.5 mM of 2-deoxy-glucose for 4 hours. Medium is then removed, and cells are lysed in an ice-cold buffer M-PER (Thermo Scientific, 78501), containing protease and phosphatase inhibitors. P-EF2 levels are determined in these lysates using the P-EF2 AlphaLISA described above.

Sequence of PIK3C3 lipid kinase (Q8NEB9 whole entry): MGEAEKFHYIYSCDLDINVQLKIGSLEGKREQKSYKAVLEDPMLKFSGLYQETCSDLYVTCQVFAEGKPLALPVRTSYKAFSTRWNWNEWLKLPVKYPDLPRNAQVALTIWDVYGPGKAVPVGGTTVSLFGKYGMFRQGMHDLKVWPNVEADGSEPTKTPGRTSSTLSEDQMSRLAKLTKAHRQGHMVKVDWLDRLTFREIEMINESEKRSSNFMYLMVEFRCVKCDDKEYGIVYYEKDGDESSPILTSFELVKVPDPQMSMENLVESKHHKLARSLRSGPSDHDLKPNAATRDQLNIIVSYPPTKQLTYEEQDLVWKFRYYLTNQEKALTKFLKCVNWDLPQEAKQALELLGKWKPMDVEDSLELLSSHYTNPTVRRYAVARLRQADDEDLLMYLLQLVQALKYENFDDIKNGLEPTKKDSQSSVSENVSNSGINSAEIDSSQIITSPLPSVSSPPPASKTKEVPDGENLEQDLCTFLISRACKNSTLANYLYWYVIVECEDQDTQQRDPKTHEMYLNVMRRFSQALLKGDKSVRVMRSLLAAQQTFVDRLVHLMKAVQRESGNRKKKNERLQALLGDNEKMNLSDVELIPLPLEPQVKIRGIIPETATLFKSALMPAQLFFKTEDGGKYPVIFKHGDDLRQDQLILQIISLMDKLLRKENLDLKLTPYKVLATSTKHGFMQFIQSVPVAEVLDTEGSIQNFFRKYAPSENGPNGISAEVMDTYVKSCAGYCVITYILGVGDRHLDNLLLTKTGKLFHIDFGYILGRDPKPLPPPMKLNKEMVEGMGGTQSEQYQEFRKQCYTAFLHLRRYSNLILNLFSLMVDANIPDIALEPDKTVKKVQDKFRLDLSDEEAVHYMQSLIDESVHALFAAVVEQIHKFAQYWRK

`CC1CN2CC(=O)NCCCNc3ncc(cn3)-c3ccnc(c3)Nc3cccc(c3)CN1C(C)C2` (centres unmarked) [Compound 34] was tested, and the remaining activity at 1 µM (PIK3C3 lipid kinase) was 23.5%, the IC50 (PIK3C3 lipid kinase) was 3.63e-07 M and the IC50 (EF2K) was 3.31e-07 M. The IC50 (eEF2K) was about 2.63e-06 M.

With `CC1CN2Cc3cccc(c3)Nc3cc(ccn3)-c3cnc(nc3)NCCCNC(=O)CN1CC2C` (centres unmarked) [Compound 35] the remaining activity at 1 µM (PIK3C3 lipid kinase) was 20.9%, the IC50 (PIK3C3 lipid kinase) was 2.95e-07 M and the IC50 (EF2K) was 6.46e-08 M. The IC50 (eEF2K) was 2.45e-07 M.

`CC1CN2CCN1Cc1cccc(c1)Nc1cc(ccn1)-c1cnc(nc1)NCCCNC(=O)C2` (centres unmarked) [Compound 36] gave an IC50 (PIK3C3 lipid kinase) of 7.24e-07 M, an IC50 (EF2K) of 1.62e-08 M and an IC50 (eEF2K) of 9.77e-07 M.

`O=C1CN2CCN(CC2)Cc2cccc(c2)Nc2cc(ccn2)-c2ccc(nn2)NCCCN1` [Compound 37] gave a remaining activity at 1 µM (PIK3C3 lipid kinase) of 84.5%, an IC50 (EF2K) of about 2.45e-05 M and an IC50 (eEF2K) of over 3.02e-05 M.

Compound `CN1CCCN(C)c2ncc(cn2)-c2ccnc(c2)Nc2cccc(c2)CN2CCN(CC2)CC1=O` [Compound 38] has a remaining activity at 1 µM (PIK3C3 lipid kinase) of 43.3%, an IC50 (EF2K) of 8.51e-08 M and an IC50 (eEF2K) of over 3.02e-05 M.

`O=C1CN2CCN(CC2)Cc2cccc(c2)Nc2cc(ccn2)-c2cnc(cn2)NCCCN1` [Compound 39] was tested, and the remaining activity at 1 µM (PIK3C3 lipid kinase) was 45.7%, the IC50 (EF2K) was 2.75e-07 M and the IC50 (eEF2K) was 1.23e-05 M.

`CC1CN2CCN1Cc1cccc(c1)Nc1cc(ccn1)-c1cnc(nc1)NCCCNC(=O)C2` (centres unmarked) [Compound 40] was tested, and the remaining activity at 1 µM (PIK3C3 lipid kinase) was 11%, the IC50 (PIK3C3 lipid kinase) was 2.63e-07 M and the IC50 (EF2K) was 1.62e-07 M. For the same compound, the IC50 (eEF2K) was about 5.89e-06 M.

`O=C1CN2CC3CCC(C2)N3Cc2cccc(c2)Nc2cc(ccn2)-c2cnc(nc2)NCCCN1` [Compound 41] gave a remaining activity at 1 µM (PIK3C3 lipid kinase) of 23.3%, an IC50 (PIK3C3 lipid kinase) of 7.41e-07 M and an IC50 (EF2K) of 1.05e-07 M. It also gave an IC50 (eEF2K) of 1.7e-06 M.

`O=C1CN2C3CCC2CN(Cc2cccc(c2)Nc2cc(ccn2)-c2cnc(nc2)NCCCN1)C3` [Compound 42] gave an IC50 (PIK3C3 lipid kinase) of 7.08e-07 M, an IC50 (EF2K) of 9.77e-08 M and an IC50 (eEF2K) of about 2.29e-06 M.

`O=C1CN2CCN(Cc3cccc(c3)Nc3cc(ccn3)-c3cnc(nc3)N3CCCC3CCN1)C(CO)C2` (centres unmarked) [Compound 44] gave an IC50 (PIK3C3 lipid kinase) of 1.55e-06 M, an IC50 (EF2K) of 2.45e-08 M and an IC50 (eEF2K) of 8.71e-06 M.

`O=C1CN2CCN(Cc3cccc(c3)Nc3cc(ccn3)-c3cnc(nc3)N3CCCC3CCN1)C(CO)C2` (centres unmarked) [Compound 46] gave an IC50 (PIK3C3 lipid kinase) of 2.34e-06 M, an IC50 (EF2K) of 1.32e-08 M and an IC50 (eEF2K) of 6.46e-07 M.

`CC1CN2CCN1Cc1cccc(c1)Nc1cc(ccn1)-c1cnc(nc1)N1CCCC1CCNC(=O)C2` (centres unmarked) [Compound 47] gave an IC50 (PIK3C3 lipid kinase) of 9.12e-06 M, an IC50 (EF2K) of 8.51e-09 M and an IC50 (eEF2K) of 4.17e-07 M.

Compound `CC1CN2CCN1Cc1cccc(c1)Nc1cc(ccn1)-c1cnc(nc1)N1CCCC1CCNC(=O)C2` (centres unmarked) [Compound 48] has a remaining activity at 1 µM (PIK3C3 lipid kinase) of 44.1%, an IC50 (EF2K) of 7.94e-08 M and an IC50 (eEF2K) of 3.16e-06 M.

`O=C1NCCC2CC(O)CN2c2ncc(cn2)-c2ccnc(c2)Nc2cccc(c2F)CN2CCN(CC2)C12CC2` (centres unmarked) [Compound 53] gave an IC50 (PIK3C3 lipid kinase) of 1.78e-07 M, an IC50 (EF2K) of 4.07e-09 M and an IC50 (eEF2K) of 8.51e-08 M.

Work on `O=C1CN2CCN(CC2)Cc2cccc(c2)Nc2cc(ccn2)-c2cnc(nc2)N2CC(O)CC2CCN1` (centres unmarked) [Compound 54] yielded an IC50 (PIK3C3 lipid kinase) of 9.77e-06 M, an IC50 (EF2K) of 1.1e-08 M and an IC50 (eEF2K) of 7.94e-07 M.

For `O=C1CN2CCN(CC2)Cc2cccc(c2)Nc2cc(ccn2)-c2cnc(nc2)N2CC(O)CC2CCN1` (centres unmarked) [Compound 55], the remaining activity at 1 µM (PIK3C3 lipid kinase) was 29.6%, the IC50 (PIK3C3 lipid kinase) was 5.5e-07 M and the IC50 (EF2K) was 8.51e-09 M. The IC50 (eEF2K) was 7.76e-07 M.

For `O=C1NCCC2CC(O)CN2c2ncc(cn2)-c2ccnc(c2)Nc2cccc(c2)CN2CCN(CC2)C12CC2` (centres unmarked) [Compound 56], the IC50 (PIK3C3 lipid kinase) was 2.63e-07 M, the IC50 (EF2K) was 3.39e-09 M and the IC50 (eEF2K) was 3.02e-07 M.

`O=C1NCCC2CC(O)CN2c2ncc(cn2)-c2ccnc(c2)Nc2cccc(c2)CN2CCN(CC2)C12CC2` (centres unmarked) [Compound 57] gave an IC50 (PIK3C3 lipid kinase) of 5.01e-06 M, an IC50 (EF2K) of 1.02e-08 M and an IC50 (eEF2K) of 3.09e-07 M.

Work on `CC1CN2CCN1Cc1cccc(c1)Nc1cc(ccn1)-c1cnc(nc1)N1CC(O)CC1CCNC(=O)C2` (centres unmarked) [Compound 59] yielded an IC50 (PIK3C3 lipid kinase) of 4.17e-07 M, an IC50 (EF2K) of 3.47e-08 M and an IC50 (eEF2K) of 8.51e-07 M.

For `CC1CN2CCN1Cc1cccc(c1)Nc1cc(ccn1)-c1cnc(nc1)N1CC(O)CC1CCNC(=O)C2` (centres unmarked) [Compound 60], the remaining activity at 1 µM (PIK3C3 lipid kinase) was 86.8%, the IC50 (EF2K) was 6.61e-08 M and the IC50 (eEF2K) was 4.79e-06 M.
